Results as given in patent publication US7741274B2, “Casein derived peptides and uses thereof in therapy” (priority 2000, dated 2010).

Assays:
[1] = test system: Non-Obese Diabetic (NOD) mice; assay: Prevention of glucosuria / Juvenile (Type I, IDDM) Diabetes in NOD mice; format: in vivo, mouse; conditions: for Healthy/Total* (healthy and well = sugar not detected in urine): female NOD mice
Method: Juvenile (Type I, IDDM) Diabetes in Non-Obese Diabetic (NOD) Mice:
Peptides Derived from Natural Casein:
NOD mice are a commonly used model for research of autoimmune disease and human Juvenile Diabetes. Six week old female NOD mice received either one or two injections per week of 100 μg of peptides derived from natural casein, for a total of 5 or 11 treatments. Control mice received no treatment. The severity of disease was determined according to glucosuria, which was measured using Combi test sticks [Gross, D. J. et al. (1994), Diabetology, 37:1195]. Results were expressed as the percent of glucosuria-free mice in each sample over a 365-day period.
Synthetic Peptides Derived from Casein:
In another experiment, 6 week old female NOD mice received one injection per week of 100 μg of Synthetic peptides derived from casein for a total of 5 treatments. Control mice received no treatment. Results were expressed as the number of healthy mice in the various treated groups.

[2] = test system: murine primary bone marrow cells; assay: Multipotential colonies (CFU-GEMM) from murine bone marrow cells, colony and differential counts; format: cell-based, mouse; conditions: for megakaryocyte formation and development: 8 days treatment; for macrophages, % of total cell count: approximately 17% in unincubated controls
Method: Stimulation of Hematopoiesis from Bone Marrow (BM) Cells in Culture:
Proliferation of megakaryocytes in multipotential colonies (CFU-GEMM) from murine Bone Marrow cells: Primary bone marrow cells (1×10^5 per ml) from 8-12 week-old C3H/HeJ mice were grown in serum-free methyl cellulose-IMDM medium for 8-9 days at 5% CO2, 95% air, at 37° C. The medium, appropriate for the growth of multipotential colonies (CFU-GEMM), contained 1% BSA (Sigma), 10^−4 M thioglycerol (Sigma), 2.8×10^−4 M human transferrin (TF, Biological industries, Israel), 10% WEHI-CM as a source of IL-3 and 2 units per ml erythropoietin (rhEPO, R & D Systems, Minneapolis). Colonies were scored after 8-9 days using an Olympus dark field microscope. They were picked with a micropipette, cytocentrifuged and stained with May-Grunwald-Giemsa for differential counts. At least 700 cells were counted for each preparation. […]
Proliferation of Macrophage cells in CFU-GEMM: Multipotent (CFU-GEMM colonies grown from primary bone marrow cells as described for the assay of megakaryocyte proliferation above were collected, stained and counted for macrophage cells. At least 700 cells were counted for each preparation.
Proliferation of Red Blood Cells in CFU-GEMM: Multipotent (CFU-GEMM) colonies grown from primary bone marrow cells as described for the assay of megakaryocyte proliferation above were collected, stained and counted for red blood cells. At least 700 cells were counted for each preparation. […]

[3] = test system: lethally irradiated, bone marrow-reconstituted mice; assay: Leukocyte and platelet reconstitution in bone marrow transplant recipient mice; format: in vivo, mouse; conditions: for peripheral white blood cell counts: BALB/c, 600 cGy, 1 mg per mouse intraperitoneal; for platelet counts: 800 cGy, 100 μg per mouse i.p. on days 4-7
Method: Leukocyte and platelet reconstitution in bone marrow transplant recipient mice: BALB/c mice were lethally irradiated at a source to skin distance of 70 cm, dosage of 50 cGy per minute, for a total of 600 cGy. The irradiated mice were […] casein, synthetic peptides derived from casein (13-26 amino acids, see Table 3 above), or human serum albumin (controls), following a double-blinded protocol. Leukocyte reconstitution was determined according to cell count in peripheral blood collected at indicated intervals from 6 to 12 days post treatment. Platelet reconstitution was determined by cell count in blood collected from the retro orbital plexus, into heparinized capillaries, at indicated intervals from day 6 to day 15 post treatment.
In an additional series of experiments, CBA mice were lethally irradiated (900 cGy), reconstituted and treated with peptides derived from natural casein or human serum albumin as described above. Platelet reconstitution was assayed as mentioned above.
In a third series of experiments, the mice were irradiated (800 cGy), reconstituted and injected intraperitoneally with 100 μg synthetic peptides derived from casein (peptides 3a and 4P, representing the first 6 and 12 amino acids of the N terminus of αS1 casein, respectively—see Table 3 above) daily, on days 4, 5, 6 and 7 post-transplantation. Platelet reconstitution was assayed at 10 and 12 days post-transplantation.

[4] = 100 μg once weekly for 5 weeks, evaluated after 25 weeks

Row | Substance | Healthy/Total* (healthy and well = sugar not detected in urine) [1, 4] | megakaryocyte formation and development [2] | further results
1 | RPKHPIKHQGLPQEVLNENLLR [J] | 3/5 |  | 
2 | RPKHPIKHQGLPQEVLNE [F] |  | significant increase | 
3 | RPKHPIKHQGLPQEVLN |  | significant increase | peripheral white blood cell counts ([3]; day 10, albumin control 16.7): 27.4 ×10^6 cells per dl; peripheral white blood cell counts ([3]; day 12, albumin control 46.4): 52.0 ×10^6 cells per dl
4 | RPKHPIKHQGLPQ [A] | 2/5 |  | peripheral white blood cell counts ([3]; day 10, albumin control 16.7): 17.2 ×10^6 cells per dl; peripheral white blood cell counts ([3]; day 12, albumin control 46.4): 65.4 ×10^6 cells per dl
5 | RPKHPIKHQGLPQEVL [D] | 2/5 |  | macrophages, % of total cell count [2]: ~30%
6 | RPKH [2P] |  |  | onset of glucosuria ([1]; assayed at week 16, untreated controls 100% glucosuria, data not shown): effectively prevented; red blood cells, % of total cell count ([2]; 53% in unincubated controls): 71%
7 | RPKHPIKHQGLPQEVLNENLLRF | 2/5 |  | macrophages, % of total cell count [2]: ~30%
8 | RPKHPIKHQGLPQEVLNEN |  | significant increase | 
9 | RPKHPIKHQGLP [3a] | 3/5 | significant increase | prevention of glucosuria (in words) [1, 4]: highly effective; increase of platelet counts over untreated controls ([3]; 10 days post transplantation): up to 35.5%; platelet counts ([3]; 10 days post transplantation, control 169): 229000 mL⁻¹; increase of platelet counts over untreated controls ([3]; 12 days post transplantation): up to 13.5%; platelet counts ([3]; 12 days post transplantation, controls 676 (4P) and 461 (3a)): 622000 mL⁻¹
10 | RPKHPIKHQGLPQEVLNENL |  | significant increase | 
11 | RPKHPIK [5P] |  |  | macrophages, % of total cell count [2]: ~30%
12 | RPKHPIKH [Y] | 1/5 |  | 
13 | RPKHPIKHQGLPQEVLNENLL | 2/5 | significant increase | 
14 | RPKHPIKHQGLPQEVLNENLLRFF |  | significant increase | 
